Results taken from patent US20240287138A1, “CYCLIC PEPTIDES FOR INHIBITING TNF RECEPTOR 1 ACTIVITY” (Merck Sharp & Dohme LLC, priority 2023, published 2024).
Numbered stars: 1 amine (or outer) side, 2 acyl side, 3 side chain; on linkers, the order of the positions; unused ones are H or OH. Bridge positions count the residues as written; N and C are the ends. Square brackets hold non-standard residues; d marks the D form. Peptide text beside a SMILES is read from it. Trp(βS-Me,7-OMe) = COc1cccc2c([C@H](C)[C@H](N)C(=O)O)c[nH]c12; Trp(1-CH2COOH) = N[C@@H](Cc1cn(CC(=O)O)c2ccccc12)C(=O)O; Morpholine(3S-CO,6,6-Me2) = CC1(C)CN[C@H](C(=O)O)CO1; Trp(βS-Me) = C[C@@H](c1c[nH]c2ccccc12)[C@H](N)C(=O)O; Trp(7-CN) = N#Cc1cccc2c(C[C@H](N)C(=O)O)c[nH]c12; Trp(7-Cl) = N[C@@H](Cc1c[nH]c2c(Cl)cccc12)C(=O)O; Phe(3-CONH2) = NC(=O)c1cccc(C[C@H](N)C(=O)O)c1; Phe(4-CONH2) = NC(=O)c1ccc(C[C@H](N)C(=O)O)cc1; Phe(4-COOH) = N[C@@H](Cc1ccc(C(=O)O)cc1)C(=O)O; X9 = CN(C)[C@@H]1C[C@H](C(=O)[*:2])N([*:1])C1; Phe(4-CH2NH2) = NCc1ccc(C[C@H](N)C(=O)O)cc1; dPro(4S-NH2) = N[C@@H]1CN[C@@H](C(=O)O)C1; Pip(5R-OH) = O=C(O)[C@@H]1CC[C@@H](O)CN1; X1 = O=C([C@@H]1CC[C@H](N[*:1])C1)[*:2]; 2Nal = N[C@@H](Cc1ccc2ccccc2c1)C(=O)O; 4Pal = N[C@@H](Cc1ccncc1)C(=O)O; NMeE = CN[C@@H](CCC(=O)O)C(=O)O; dHyp = O=C(O)[C@H]1C[C@H](O)CN1; Cit = NC(=O)NCCC[C@H](N)C(=O)O; Ahp(2) = CCCCC[C@H](N)C(=O)O; NEtAla = CCN[C@@H](C)C(=O)O; Pip = O=C(O)[C@@H]1CCCCN1; αMeS = C[C@](N)(CO)C(=O)O; Nle = CCCC[C@H](N)C(=O)O; Sar = CNCC(=O)O

The compounds below were run against T1, TNFα-induced NF-κB signal transduction pathway (TNFR1 signaling) in THP-1 cells (Homo sapiens, UniProt P19438) (assay: THP-1 Lucia NF-κB reporter cell assay, inhibition of TNFα-induced NF-κB signaling). Details: THP-1 NF-κB Lucia reporter cells, 10 ng/mL TNFα, 16-18 h, secreted luciferase; read-out: THP-1 IC50.
T1 sequence (P19438 30-455): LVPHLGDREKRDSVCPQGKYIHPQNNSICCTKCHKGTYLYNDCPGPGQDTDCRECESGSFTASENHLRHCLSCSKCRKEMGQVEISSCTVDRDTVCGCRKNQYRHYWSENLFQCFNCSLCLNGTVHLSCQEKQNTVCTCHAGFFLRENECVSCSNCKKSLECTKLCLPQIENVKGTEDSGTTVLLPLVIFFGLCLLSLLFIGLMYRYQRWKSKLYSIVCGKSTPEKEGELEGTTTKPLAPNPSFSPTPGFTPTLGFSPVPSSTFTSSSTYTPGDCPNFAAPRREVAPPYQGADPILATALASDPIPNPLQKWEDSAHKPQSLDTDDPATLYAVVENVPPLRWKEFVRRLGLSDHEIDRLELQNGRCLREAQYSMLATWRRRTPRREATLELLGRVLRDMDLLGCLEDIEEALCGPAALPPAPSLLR
Type: cell-based
Procedure, shortened: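 THP-1 Lucia NF-κB cells, 20k/well, no selection antibiotics; peptide pre-inc 1 h 37 °C; + recombinant human TNFα 10 ng/mL final; o.n.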

Q: With CCCCC[C@@H]1NC(=O)[C@@H]2CC[C@@H](C2)NC(=O)[C@H]([C@@H](C)c2c[nH]c3c(OC)cccc23)NC(=O)CN(C)C(=O)[C@H](Cc2cccc(C(N)=O)c2)NC(=O)[C@H](Cc2ccc(C(N)=O)cc2)NC(=O)[C@](C)(CO)NC(=O)[C@H](Cc2c[nH]c3c(C#N)cccc23)NC(=O)[C@H](Cc2ccc(C(=O)O)cc2)NC(=O)[C@H](CC(N)=O)NC(=O)[C@H]2C[C@@H](N(C)C)CN2C(=O)[C@H](Cc2c[nH]c3ccccc23)NC(=O)[C@@H]2CC[C@@H](O)CN2C(=O)[C@H](Cc2ccncc2)NC1=O [SEQ ID NO. 84] (cyclo([4Pal][Pip(5R-OH)]W[X9]N[Phe(4-COOH)][Trp(7-CN)][αMeS][Phe(4-CONH2)][Phe(3-CONH2)][Sar][Trp(βS-Me,7-OMe)][X1][Ahp(2)])) as the compound, how does the IC50 read?
A: 0.6 nM

Q: Which IC50 does the source give for CCCC[C@@H]1NC(=O)[C@@H]2CC[C@@H](C2)NC(=O)[C@H]([C@@H](C)c2c[nH]c3c(OC)cccc23)NC(=O)CN(C)C(=O)[C@H](Cc2ccc(C(=O)O)cc2)NC(=O)[C@H](Cc2ccc(C(N)=O)cc2)NC(=O)[C@](C)(CO)NC(=O)[C@H](Cc2c[nH]c3c(C#N)cccc23)NC(=O)[C@H](Cc2ccc(C(=O)O)cc2)NC(=O)[C@H](CC(N)=O)NC(=O)[C@H]2C[C@H](N)CN2C(=O)[C@H](Cc2cn(CC(=O)O)c3ccccc23)NC(=O)[C@@H]2CC[C@@H](O)CN2C(=O)[C@H](Cc2ccncc2)NC1=O [SEQ ID NO. 104] (cyclo([4Pal][Pip(5R-OH)][Trp(1-CH2COOH)][dPro(4S-NH2)]N[Phe(4-COOH)][Trp(7-CN)][αMeS][Phe(4-CONH2)][Phe(4-COOH)][Sar][Trp(βS-Me,7-OMe)][X1][Nle])) here?
A: 1 nM

Q: CCCC[C@@H]1NC(=O)CSC[C@@H](C(N)=O)NC(=O)[C@H]([C@@H](C)c2c[nH]c3c(OC)cccc23)NC(=O)CN(C)C(=O)[C@H](Cc2ccc(O)cc2)NC(=O)[C@H](Cc2ccc(C(=O)O)cc2)NC(=O)[C@](C)(CO)NC(=O)[C@H](Cc2c[nH]c3c(Cl)cccc23)NC(=O)[C@H](Cc2ccncc2)NC(=O)[C@H](CC(N)=O)NC(=O)[C@H](C)N(CC)C(=O)[C@H](Cc2c[nH]c3ccccc23)NC(=O)[C@@H]2COC(C)(C)CN2C(=O)[C@H](Cc2ccncc2)NC1=O [SEQ ID NO. 183] ({CH2CO}-[Nle][4Pal][Morpholine(3S-CO,6,6-Me2)]W[NEtAla]N[4Pal][Trp(7-Cl)][αMeS][Phe(4-COOH)]Y[Sar][Trp(βS-Me,7-OMe)]C-NH2; thioether N-14) was tested. Which IC50 did it give?
A: 2.8 nM

Q: For CCCC[C@@H]1NC(=O)[C@@H]2CC[C@@H](C2)NC(=O)[C@H]([C@@H](C)c2c[nH]c3c(OC)cccc23)NC(=O)CN(C)C(=O)[C@H](Cc2ccc(C(N)=O)cc2)NC(=O)[C@H](Cc2ccc(C(N)=O)cc2)NC(=O)[C@](C)(CO)NC(=O)[C@H](Cc2c[nH]c3c(Cl)cccc23)NC(=O)[C@H](Cc2ccc(C(=O)O)cc2)NC(=O)[C@H](CC(N)=O)NC(=O)[C@H]2C[C@H](O)CN2C(=O)[C@H](Cc2c[nH]c3ccccc23)NC(=O)[C@@H]2CC[C@@H](O)CN2C(=O)[C@H](Cc2ccncc2)NC1=O [SEQ ID NO. 196] (cyclo([4Pal][Pip(5R-OH)]W[dHyp]N[Phe(4-COOH)][Trp(7-Cl)][αMeS][Phe(4-CONH2)][Phe(4-CONH2)][Sar][Trp(βS-Me,7-OMe)][X1][Nle])), which IC50 is on record?
A: 0.6 nM

Q: Which IC50 does the source give for C[C@@H](c1c[nH]c2ccccc12)[C@@H]1NC(=O)CN(C)C(=O)[C@H](Cc2ccc(CN)cc2)NC(=O)[C@H](Cc2ccc(C(=O)O)cc2)NC(=O)[C@](C)(CO)NC(=O)[C@H](Cc2ccc3ccccc3c2)NC(=O)[C@H](Cc2ccc(CN)cc2)NC(=O)[C@H](CC(N)=O)NC(=O)[C@H]2CCCN2C(=O)[C@H]([C@@H](C)c2c[nH]c3ccccc23)NC(=O)[C@H](CO)NC(=O)[C@H](Cc2ccc(CN)cc2)NC(=O)[C@H](CCCNC(N)=O)NC(=O)CSC[C@@H](C(N)=O)NC1=O [SEQ ID NO. 206] ({CH2CO}-[Cit][Phe(4-CH2NH2)]S[Trp(βS-Me)][dP]N[Phe(4-CH2NH2)][2Nal][αMeS][Phe(4-COOH)][Phe(4-CH2NH2)][Sar][Trp(βS-Me)]C-NH2; thioether N-14) here?
A: 271 nM

Q: For CCCC[C@@H]1NC(=O)[C@@H]2CC[C@@H](C2)NC(=O)[C@H]([C@@H](C)c2c[nH]c3c(OC)cccc23)NC(=O)CN(C)C(=O)[C@H](Cc2cccc(C(N)=O)c2)NC(=O)[C@H](Cc2ccc(C(=O)O)cc2)NC(=O)[C@](C)(CO)NC(=O)[C@H](Cc2c[nH]c3c(Cl)cccc23)NC(=O)[C@H](Cc2ccncc2)NC(=O)[C@H](CC(N)=O)NC(=O)[C@H](CCC(=O)O)N(C)C(=O)[C@H](Cc2c[nH]c3ccccc23)NC(=O)[C@@H]2CCCCN2C(=O)[C@H](Cc2ccncc2)NC1=O [SEQ ID NO. 221] (cyclo([4Pal][Pip]W[NMeE]N[4Pal][Trp(7-Cl)][αMeS][Phe(4-COOH)][Phe(3-CONH2)][Sar][Trp(βS-Me,7-OMe)][X1][Nle])), which IC50 is on record?
A: 1 nM
